Among the data in paper doi:10.1101/2025.10.13.682155v1 (biorxiv, 2025) are Kd values, retold here.

Each structure is given as a SMILES string.

The experiment addresses T1, hCNPY4 (FLAG-tagged human Canopy4) (Homo sapiens, UniProt Q8N129).
T1 sequence (Q8N129 22-248): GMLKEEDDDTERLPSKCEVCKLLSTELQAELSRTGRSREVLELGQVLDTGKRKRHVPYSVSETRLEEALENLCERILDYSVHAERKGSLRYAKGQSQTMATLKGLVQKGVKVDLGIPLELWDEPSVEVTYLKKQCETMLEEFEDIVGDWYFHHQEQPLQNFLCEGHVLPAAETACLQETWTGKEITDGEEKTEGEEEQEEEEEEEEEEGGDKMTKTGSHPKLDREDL
The experiment in a line: fluorescence polarization, direct titration. In kind it is binding. Background: In fluorescence polarisation assays a small probe gives low polarisation when free and higher when bound to something large.
In the case of `CCCCCCCCCCCCC/C=C/[C@@H](O)[C@H](CO)NC(=O)CCCCCNc1ccc([N+](=O)[O-])c2nonc12` [NBD-ceramide 6:0], binding was put at a Kd of 0.08 ± 0.025 µM.

Turning to `CCCCCCCCCCCCC/C=C/[C@@H](O)[C@H](COP(=O)(O)O)NC(=O)CCCCCNc1ccc([N+](=O)[O-])c2nonc12` [NBD-ceramide-1-phosphate 6:0], the Kd (commonly the concentration at which binding is half-saturated) was 0.13 ± 0.04 µM.

Regarding `CCCCCCCCCCCCC/C=C/[C@@H](O)[C@H](COP(=O)([O-])OCC[N+](C)(C)C)NC(=O)CCCCCNc1ccc([N+](=O)[O-])c2nonc12` [NBD-sphingomyelin 6:0], binding was characterised by a dissociation constant (Kd) of 0.28 ± 0.12 µM.
